Measured values as given in patent publication US9434670B2, “Family of aryl, heteroaryl, O-aryl and O-heteroaryl carbasugars” (TFCHEM, priority 2011, dated 2016).
In brackets after ≈: the same amount, converted by molar mass. One block for each molecule: values may come before it.

Legend:
female CD1 mice = assay: Facilitatory effect on urinary glucose excretion after oral administration; assay type: in vivo; conditions: 3 mg/kg po
Description: As experimental animal, female CD1 mice (CDM or Charles River) were used. A test compound was dissolved in the vehicle (5% N-methyl pyrrolidone, 20% PEG 400, 75% 20 mM Na4P2O7 buffer, v/v/v) at the concentration of 1 mg/mL After the body weights of the mice were measured and the mice randomized, the test article was orally administered at the dose of 1 mg/kg, 3 mg/kg and 10 mg/kg. For control, just the vehicle (5% N-methyl pyrrolidone, 20% PEG 400, 75% 20 mM Na4P2O7 buffer, v/v/v) was orally administered. The oral administration was performed with gastric tube for mice and a 1 mL syringe. The minimum count in one group was 3 but could reach 12 for some groups. Collection of the urine was performed manually by gentling massaging the abdomen in order to collect urine (3 μL) via a calibrated pipette. Urine was collected at 1, 2, 4, 6, 8 and then 16, 18, 20, 22, 24, 26 and 28 hrs. The urine glucose concentration was measured using a WAKO glucose kit as follows: 3 μL of urine was deposited into a 96-well micro plate for spectrometric readout. The urine aliquot was diluted with 350 μL of the WAKO working solution. […] The absorbance of the 96-well plates were then read at 505 nm using a BioTek SynergyMX plate fluorometer/absorbance photometer and the glucose concentration was calculated. […]

[1] = test system: 18 hrs fasted female CD1 mice; assay: Decrease of blood glucose excursions following oral glucose challenge (oral glucose tolerance test); assay type: in vivo
Description: As experimental animal, 18 hrs fasted female CD1 mice (CDM or Charles River) were used. A test compound was dissolved in the vehicle (5% N-methyl pyrrolidone, 20% PEG 400, 75% 20 mM Na4P2O7 buffer, v/v/v) at the concentration of 1 mg/mL. After the body weights of the mice were measured and the mice randomized, the test article was orally administered at the dose of 1 mg/kg, 3 mg/kg and 10 mg/kg. For control, just the vehicle (5% N-methyl pyrrolidone, 20% PEG 400, 75% 20 mM Na4P2O7 buffer, v/v/v) was orally administered. 15 min after this oral administration, a 20% glucose solution in deionised water was orally administered to all mice. The oral administration was performed with gastric tube for mice and a 1 mL syringe. The minimum count in one group was 3 but could reach 5 for some groups. Collection of the blood was performed via the saphenous vein. Blood was collected at 5, 10, 30, 45, 60 and 120 min post glucose challenge. One experiment consisted in administrating the test article 18 hrs prior to a glucose challenge i.e. 18 hrs post po of test article. The blood glucose concentration was measured using Johnson and Johnson's OneTouch® Ultra Blood Glucose Monitoring System. The glucose concentrations for controls and test articles at the different time points were averaged using Excel 2007 and plotted using GraphPad Prism 5.

[2] = test system: β-glucosidase from Almonds; assay: Enzymatic stability against glycosidase, HPLC analysis after incubation with β-glucosidase; assay type: in vitro ADME; conditions: for degradation in the presence of β-glucosidase (in words): 4 h at 37° C., phosphate buffer pH 7, 10 U β-glucosidase
From the text: The enzymatic stability assay has been performed with compound 26 according to the invention and compound A used as a reference compound to control the efficacy of the β-glucosidase. The sergliflozin-A stability has also been evaluated in order to compare the improvement of metabolic stability obtained through the replacement of the intracyclic oxygen atom of the glucose moiety by a CF2 moiety.
All the compounds have been treated with β-glucosidase. The stability of compound 26 and Sergliflozin-A has been assessed by HPLC analysis after incubation with β-glucosidase.
A Gilson HPLC system was used, equipped with a manual injection system (V=20 μL), a Diode Array Detector (DAD172) set at a wavelength of 230 nm and a 150 mm×4.6 mm, 5 μm HICHROM Kromasil 100-5C18 reverse phase column. A linear HPLC binary gradient was used as follows: solvent A was water and solvent B was acetonitrile. Following the injection of 20 μL of a sample, solvent B was held at 20% for 3 min, increased from 20% to 90% in 17 min, held at 90% for 4 min; finally, solvent B was decreased back to 20% over 5.5 min and was held at 20% for 3.5 min.
The procedure has been adapted from J. Agric. Food Chem. 2005, 53, 4918-4924.
100 μL of a solution of compound 26 at 4.5·10^−4 mol·L^−1 in acetonitrile was added to a solution containing 800 μL of phosphate buffer (73173 Fluka, pH 7) in the presence of β-glucosidase from Almonds (10 U, 100 μL of a 5.6 mg·mL^−1 solution in phosphate buffer, (G4511sigma 18.7 U per mg)) and was kept 4 h at 37° C.
100 μL of a solution of sergliflozin-A at 4.5·10^−4 moL·L^−1 in acetonitrile has been treated in the presence of β-glucosidase following the same process.
In parallel, 100 μL of a solution of p-nitrophenyl-β-glucoside (compound A) at 4.5·10^−4 mol·L^−1 in phosphate buffer (73173 Fluka, pH 7) was added to a solution containing 700 μL of phosphate buffer and 100 μL of acetonitrile, with the presence of β-glucosidase from Almonds (10 U, 100 μL of a 5.6 mg·mL^−1 solution in phosphate buffer, (G4511 sigma 18.7 U per mg)) and was kept 4 h at 37° C. During the process in the presence of β-glucosidase, a yellow coloration was observed that underlines the decomposition of compound. A.
HPLC of compound 21 (FIG. 7), compound 26 (FIG. 8) and Sergliflozin-A (FIG. 10) have been performed to follow up in the experiments the formation of compound 21 (the aglycone part) implying a degradation of the starting material.
In order to evaluate the percentage of degradation, a calibration has been done on compound 21 giving the following results:
Data have been plotted (Area % versus concentration) and the linear regression obtained was characterized by the equation y=53629x and a R^2=0.994. […]

Mushroom Tyrosinase [3] = assay: Inhibition of Tyrosine-Tyrosinase reaction, absorbance at 477 nm (assay e); assay type: biochemical; conditions: test compound n = 5·10^−5 mol; Solution A 1 mL, Solution B 0.5 mL, buffer 0.5 mL; witness solution 0.4354
Description: Inhibition of tyrosinase, i.e. inhibition of the hydroxylation of Tyrosine into DOPA, was measured by visible spectrophotometry, and more specifically by measuring the absorbance at 477 nm, indicative of the amount of melanine produced in vitro from the Tyrosine substrate by Tyrosinase. In order to make sure that the measured absorbance is proportional to the enzymatic activity in the range of studied concentrations, five standard solutions were prepared as follows. Absorbance has been measured on a Perkin Elmer UV/Vis Spectrometer Lambda 12. Solution A (1,000 U/mL mother solution of Tyrosinase) was prepared by dissolving 40 mg of 1,250 U/mg Mushroom Tyrosinase in 1 mL 100 mM pH6.5 bis Tris buffer and QS to 50 mL with milliQ water. Bis Tris buffer (100 mM pH6.5 bis Tris buffer) was prepared by dissolving 2.09 g of Bis Tris in milliQ water and QS to 100 mL. Solution B (mother solution of Tyrosine) was prepared by dissolving 100 mg of Tyrosine in milliQ water and QS to 100 mL. The standard solutions were incubated for 2 h at 37° C., then quickly cooled to 4° C. […] The following test solutions were prepared and their absorbance was measured at 477 nm: […]

Mushroom Tyrosinase [4] = assay: Tyrosinase inhibition, concentration series and IC50 (assay f); assay type: biochemical; conditions: for IC50: Concentration Tyrosinase 100 U/mL, from linear regression of % activity versus concentration; for Absorbance (477 nm): 1 h 30 at 37° C.; for % activity: witness solution = 100%
Description: The protocol performed is the same as in assay e. Solution A (1,000 U/mL mother solution of Tyrosinase) was prepared by dissolving all of 50 kU Mushroom Tyrosinase in 1 mL 100 mM pH6.5 bis Tris buffer and QS to 50 mL with milliQ water. Bis Tris buffer (100 mM pH6.5 bis Tris buffer) was prepared by dissolving 2.09 g of Bis Tris in milliQ water and QS to 100 mL. pH was adjusted at 6.5 using hydrochloric acid. Solution B (mother solution of Tyrosine) was prepared by dissolving 20 mg of Tyrosine in milliQ water and QS to 20 mL. Stock solution of compound 31 was prepared as follow: 10 mg of compound 31 was dissolved in Bis Tris buffer up to 1 ml. Stock solution of β-arbutin was prepared as follow: 20 mg of compound β-arbutin was dissolved in Bis Tris buffer up to 1 ml. The solutions were incubated for 1 h 30 at 37° C., then quickly cooled to 4° C. 100 μL of each solution were deposited on 96-well plate. The absorbance of the different solutions were measured at 477 nm (Molecular Devices: Spectra Max 340PC). The different solutions were prepared as described in the different tables below and their absorbances were reported. The absorbance of witness solution (without inhibitor) was set at 100% of enzymatic activity, allowing us to determine the percentage of enzymatic activity of the different solutions. Data have been plotted (% of activity versus concentration of inhibitors) and the linear regression of the curve was used to calculate the […] of both compounds.

[5] = test system: β-glucosidase from Almonds; conditions: as referred in several publications; cited from earlier work
[6] = Inhibitor Concentration 0.17 mg/mL
[7] = Inhibitor Concentration 0.33 mg/mL
[8] = Inhibitor Concentration 0.50 mg/mL
[9] = Inhibitor Concentration 0.67 mg/mL
[10] = Inhibitor Concentration 0.83 mg/mL
[11] = Inhibitor Concentration 1.33 mg/mL
[12] = Inhibitor Concentration 2.00 mg/mL
[13] = Inhibitor Concentration 2.67 mg/mL
[14] = Inhibitor Concentration 3.33 mg/mL

Compound: CCOc1ccc(Cc2cc([C@H]3[C@H](O)[C@@H](O)[C@H](O)[C@@H](CO)C3(F)F)ccc2Cl)cc1 [Compound 16]
duration of glucosuria (female CD1 mice; compared to Dapagliflozin (FIG. 5)): > 24 h
blood glucose excursions following glucose challenge ([1]; 3 mg/kg po administered 18 hrs prior to glucose challenge (FIG. 4)): still reduced blood glucose excursions
blood glucose levels following glucose challenge ([1]; 1, 3 and 10 mg/kg po, normal mice, glucose 15 min after dosing (FIG. 3)): reduced blood glucose levels in a dose-dependent manner

Compound: COc1ccc(Cc2ccccc2O[C@H]2[C@H](O)[C@@H](O)[C@H](O)[C@@H](CO)C2(F)F)cc1 [Compound 26]
degradation in the presence of β-glucosidase (in words) [2]: no degradation occurs

Absorbance (477 nm) (Mushroom Tyrosinase [3]): 0.1292
IC50 (Mushroom Tyrosinase [4]): 328 µg/mL (≈ 1070 µM)
Absorbance (477 nm) (Mushroom Tyrosinase [4]; [6]): 0.5855
% activity (Mushroom Tyrosinase [4]; [6]): 81.55%
Absorbance (477 nm) (Mushroom Tyrosinase [4]; [7]): 0.3535
% activity (Mushroom Tyrosinase [4]; [7]): 49.23%
Absorbance (477 nm) (Mushroom Tyrosinase [4]; [8]): 0.255
% activity (Mushroom Tyrosinase [4]; [8]): 35.52%
Absorbance (477 nm) (Mushroom Tyrosinase [4]; [9]): 0.220
% activity (Mushroom Tyrosinase [4]; [9]): 30.57%
Absorbance (477 nm) (Mushroom Tyrosinase [4]; [10]): 0.200
% activity (Mushroom Tyrosinase [4]; [10]): 27.86%
Compound: OC[C@@H]1[C@@H](O)[C@H](O)[C@@H](O)[C@H](Oc2ccc(O)cc2)C1(F)F [Compound 31]

Absorbance (477 nm) (Mushroom Tyrosinase [3]): 0.1528
Compound: Oc1ccc(O)cc1 [Hydroquinone]

Compound: COc1ccc(Cc2ccccc2O[C@@H]2O[C@H](CO)[C@@H](O)[C@H](O)[C@H]2O)cc1 [Sergliflozin-A]
degradation in the presence of β-glucosidase (in words) [2]: degradation occurs
degradation ([2]; 4 h of incubation at 37° C. with β-glucosidase, pH 7, from HPLC area of aglycone 21): 80%
cleavage by β-glucosidase [5]: undergo cleavage

Compound: CCOc1ccc(Cc2cc([C@H]3[C@H](O)[C@@H](O)[C@H](O)[C@@H](CO)[C@@H]3O)ccc2Cl)cc1 [compound 9 of WO 2009/1076550]
glucosuria detected in the same time period (up to 24 hrs) (female CD1 mice; 16 to 28 hours after administration (FIG. 6)): none could be detected

Compound: O=[N+]([O-])c1ccc(O[C@@H]2O[C@H](CO)[C@@H](O)[C@H](O)[C@H]2O)cc1 [compound A, p-nitrophenyl-β-glucoside]
degradation in the presence of β-glucosidase (in words) [2]: decomposition

IC50 (Mushroom Tyrosinase [4]): 1100 µg/mL (≈ 4040 µM)
Absorbance (477 nm) (Mushroom Tyrosinase [4]; [9]): 0.5010
% activity (Mushroom Tyrosinase [4]; [9]): 66.62%
Absorbance (477 nm) (Mushroom Tyrosinase [4]; [11]): 0.3040
% activity (Mushroom Tyrosinase [4]; [11]): 40.43%
Absorbance (477 nm) (Mushroom Tyrosinase [4]; [12]): 0.2380
% activity (Mushroom Tyrosinase [4]; [12]): 31.65%
Absorbance (477 nm) (Mushroom Tyrosinase [4]; [13]): 0.2035
% activity (Mushroom Tyrosinase [4]; [13]): 27.06%
Absorbance (477 nm) (Mushroom Tyrosinase [4]; [14]): 0.1970
% activity (Mushroom Tyrosinase [4]; [14]): 26.20%
Compound: OC[C@H]1O[C@@H](Oc2ccc(O)cc2)[C@H](O)[C@@H](O)[C@@H]1O [β-Arbutin]
